# Test results taken from patent US12527886B2, “Radiopharmaceuticals and composition for thrombus imaging” (THE ASAN FOUNDATION, priority 2020, dated 2026).
# Experiments:
# [1] = Stability of Tc-99m labeled compound by radioTLC; format: physicochemical; settings: for Eluent A / Eluent B: in % (unit assumed)
# Description: (§1) After 2.0 mg of GP-104 was dissolved in 1.8 mL of water for injection and 0.2 mL of ethanol, the resulting solution was allowed to stand with a pH of about 5 at room temperature for 10 minutes when 20 μL of SnCl2 (15 mg/mL) and 2 mL of Tc-99m were added thereto, and the reaction was terminated by adjusting the pH to 7 using a NaOH solution. Stability up to 4 hours was confirmed by radioTLC under conditions of pH 5 and pH 7, respectively, and the results are summarized in the following Table 1. (TLC analysis conditions: iTLC was used, Eluent A: methyl ethyl ketone 100%, Eluent B: pyridine:acetic acid:purified water=3:5:15, and purity calculation: Eluent A−Eluent B)
# as §1, with “ethanol, pH was adjusted to about 5 and” for “ethanol,”, “stand” for “stand with a pH of about 5”, “(15 mg/mL), 20 μL of cysteine (10” for “(15”, “Table 2.” for “Table 1.”
# (§2) After 2.0 mg of GP-105 was dissolved in 1.8 mL of water for injection and 0.2 mL of ethanol, the pH was adjusted to about 5 and the resulting solution was allowed to stand at room temperature for 10 minutes when 20 μL of SnCl2 (15 mg/mL) and 2 mL of Tc-99m were added thereto, and the reaction was terminated by adjusting the pH to 7 using a NaOH solution. Stability until 4 hours under conditions of pH 5 and pH 7 was each confirmed by radioTLC. (TLC analysis conditions: iTLC was used, Eluent A: methyl ethyl ketone 100%, Eluent B: pyridine:acetic acid:purified water=3:5:15, and purity calculation: Eluent A−Eluent B)
# as §2, with “ethanol,” for “ethanol, the”, “(15 mg/mL), 20 μL of cysteine (10” for “(15”
# [2] = target: T1, glycoprotein IIb/IIIa (Rattus norvegicus, UniProt A0A8I6GGN2+Q8R2H2); test: Glycoprotein IIb/IIIa specific uptake in thrombotic disease model, gamma counter / microSPECT; format: in vivo, rats
# T1 construct: a disease model in which a thrombus was formed with glycoprotein IIb/IIIa overexpressed; from tissue; host or cells: in vivo rat carotid artery thrombus (ferric chloride model)
# T1 sequence (A0A8I6GGN2 32-1037): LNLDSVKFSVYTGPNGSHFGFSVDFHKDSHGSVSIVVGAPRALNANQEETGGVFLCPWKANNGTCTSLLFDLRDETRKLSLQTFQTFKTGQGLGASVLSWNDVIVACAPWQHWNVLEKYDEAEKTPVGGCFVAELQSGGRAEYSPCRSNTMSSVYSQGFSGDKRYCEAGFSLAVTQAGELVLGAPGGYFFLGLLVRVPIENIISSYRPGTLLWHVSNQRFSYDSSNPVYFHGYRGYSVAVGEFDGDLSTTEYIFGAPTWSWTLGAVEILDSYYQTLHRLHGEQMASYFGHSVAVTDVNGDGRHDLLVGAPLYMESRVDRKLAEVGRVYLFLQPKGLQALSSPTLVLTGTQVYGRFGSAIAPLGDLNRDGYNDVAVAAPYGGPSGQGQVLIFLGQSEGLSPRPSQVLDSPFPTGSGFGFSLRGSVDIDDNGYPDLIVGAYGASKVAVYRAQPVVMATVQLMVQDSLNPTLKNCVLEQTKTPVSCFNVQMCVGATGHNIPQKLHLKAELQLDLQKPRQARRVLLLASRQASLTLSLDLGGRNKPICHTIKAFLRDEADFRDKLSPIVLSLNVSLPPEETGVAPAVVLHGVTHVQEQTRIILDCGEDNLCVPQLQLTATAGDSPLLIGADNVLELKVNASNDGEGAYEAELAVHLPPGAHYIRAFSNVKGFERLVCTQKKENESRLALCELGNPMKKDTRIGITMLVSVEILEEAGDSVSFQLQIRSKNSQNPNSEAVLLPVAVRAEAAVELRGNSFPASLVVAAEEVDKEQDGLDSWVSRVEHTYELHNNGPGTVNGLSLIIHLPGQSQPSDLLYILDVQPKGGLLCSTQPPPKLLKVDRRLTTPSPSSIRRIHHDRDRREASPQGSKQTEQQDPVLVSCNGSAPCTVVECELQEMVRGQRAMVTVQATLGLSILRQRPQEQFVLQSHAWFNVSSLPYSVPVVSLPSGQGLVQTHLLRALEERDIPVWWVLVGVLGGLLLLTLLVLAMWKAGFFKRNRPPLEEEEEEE
# T1 sequence (Q8R2H2 26-787): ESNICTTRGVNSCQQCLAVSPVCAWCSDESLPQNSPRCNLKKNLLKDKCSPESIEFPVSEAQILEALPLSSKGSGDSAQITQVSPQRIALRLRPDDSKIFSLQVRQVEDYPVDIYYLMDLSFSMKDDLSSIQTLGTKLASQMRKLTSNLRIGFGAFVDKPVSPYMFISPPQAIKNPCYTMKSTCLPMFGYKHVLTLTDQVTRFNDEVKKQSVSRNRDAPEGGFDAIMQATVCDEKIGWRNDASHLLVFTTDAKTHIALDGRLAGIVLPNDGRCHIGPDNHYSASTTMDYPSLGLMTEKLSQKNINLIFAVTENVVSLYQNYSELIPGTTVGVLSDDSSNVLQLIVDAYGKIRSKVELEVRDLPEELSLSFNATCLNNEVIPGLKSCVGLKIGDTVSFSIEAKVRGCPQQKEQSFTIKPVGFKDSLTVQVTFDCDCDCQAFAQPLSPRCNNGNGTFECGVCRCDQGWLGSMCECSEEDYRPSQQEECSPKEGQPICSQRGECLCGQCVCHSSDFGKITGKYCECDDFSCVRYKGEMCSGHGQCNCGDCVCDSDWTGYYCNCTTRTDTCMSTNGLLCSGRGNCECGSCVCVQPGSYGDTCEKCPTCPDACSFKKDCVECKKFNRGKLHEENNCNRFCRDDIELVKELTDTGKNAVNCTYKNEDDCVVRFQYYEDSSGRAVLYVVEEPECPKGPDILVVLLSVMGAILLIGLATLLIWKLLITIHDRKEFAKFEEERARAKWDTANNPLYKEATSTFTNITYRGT
# Excerpt: After 6-week-old rats were anesthetized to make a thrombotic disease model, the carotid artery was secured by opening the skin on the carotid artery side. Then, a filter paper soaked with a 5% ferric chloride solution was exposed on the artery, and then washed three times or more with physiological saline, and the incised skin was sutured again to make a model. […]
# [3] = Ex 3-1, no cysteine, pH 5, 0 hour
# [4] = Ex 3-1, no cysteine, pH 5, 0.5 hours
# [5] = Ex 3-1, no cysteine, pH 5, 1.0 hour
# [6] = Ex 3-1, no cysteine, pH 5, 1.5 hours
# [7] = Ex 3-1, no cysteine, pH 5, 2.0 hours
# [8] = Ex 3-1, no cysteine, pH 5, 3.0 hours
# [9] = Ex 3-1, no cysteine, pH 5, 4.0 hours
# [10] = Ex 3-1, no cysteine, pH 7, 0 hour
# [11] = Ex 3-1, no cysteine, pH 7, 0.5 hours
# [12] = Ex 3-1, no cysteine, pH 7, 1.0 hour
# [13] = Ex 3-1, no cysteine, pH 7, 1.5 hours
# [14] = Ex 3-1, no cysteine, pH 7, 2.0 hours
# [15] = Ex 3-1, no cysteine, pH 7, 3.0 hours
# [16] = Ex 3-1, no cysteine, pH 7, 4.0 hours
# [17] = Ex 3-2, cysteine, pH 5, 0.5 hours
# [18] = Ex 3-2, cysteine, pH 5, 1.0 hour
# [19] = Ex 3-2, cysteine, pH 5, 1.5 hours
# [20] = Ex 3-2, cysteine, pH 5, 2.0 hours
# [21] = Ex 3-2, cysteine, pH 5, 3.0 hours
# [22] = Ex 3-2, cysteine, pH 5, 4.0 hours
# [23] = Ex 3-2, cysteine, pH 7, 0.5 hours
# [24] = Ex 3-2, cysteine, pH 7, 1.0 hour
# [25] = Ex 3-2, cysteine, pH 7, 1.5 hours
# [26] = Ex 3-2, cysteine, pH 7, 2.0 hours
# [27] = Ex 3-2, cysteine, pH 7, 3.0 hours
# [28] = Ex 3-2, cysteine, pH 7, 4.0 hours
# [29] = gamma counter, sacrificed at the 2nd hour
smiles,measurement,setting,value
O=C(O)C[C@H](NC(=O)[C@@H]1CCCN(C(=O)CCC2CCNCC2)C1)c1cncc(OCCNC(=O)CN2CCN3CCN(CC(=O)O)CC(=O)[O][99Tc+]([O]C(=O)C3)[O]C(=O)C2)c1 [[Tc-99m]GP-104],Purity,[1]; [3],90.28%
same,Eluent A,[1]; [3],95.7
same,Eluent B,[1]; [3],5.42
same,Purity,[1]; [4],91.36%
same,Eluent A,[1]; [4],95.42
same,Eluent B,[1]; [4],4.06
same,Purity,[1]; [5],82.28%
same,Eluent A,[1]; [5],98.43
same,Eluent B,[1]; [5],16.15
same,Purity,[1]; [6],72.79%
same,Eluent A,[1]; [6],85.7
same,Eluent B,[1]; [6],12.91
same,Purity,[1]; [7],70.11%
same,Eluent A,[1]; [7],91.79
same,Eluent B,[1]; [7],21.68
same,Purity,[1]; [8],67.71%
same,Eluent A,[1]; [8],91.64
same,Eluent B,[1]; [8],23.93
same,Purity,[1]; [9],55.93%
same,Eluent A,[1]; [9],80.48
same,Eluent B,[1]; [9],24.55
same,Purity,[1]; [10],90.59%
same,Eluent A,[1]; [10],98.26
same,Eluent B,[1]; [10],7.67
same,Purity,[1]; [11],78.04%
same,Eluent A,[1]; [11],92.82
same,Eluent B,[1]; [11],14.78
same,Purity,[1]; [12],78.31%
same,Eluent A,[1]; [12],94.51
same,Eluent B,[1]; [12],16.2
same,Purity,[1]; [13],82.7%
same,Eluent A,[1]; [13],96.11
same,Eluent B,[1]; [13],13.41
same,Purity,[1]; [14],76.61%
same,Eluent A,[1]; [14],96.22
same,Eluent B,[1]; [14],19.61
same,Purity,[1]; [15],77.93%
same,Eluent A,[1]; [15],87.58
same,Eluent B,[1]; [15],9.65
same,Purity,[1]; [16],54.14%
same,Eluent A,[1]; [16],73.22
same,Eluent B,[1]; [16],19.08
same,Purity,"[1]; Ex 3-2, cysteine, pH 5, 0 hour",85.97%
same,Eluent A,"[1]; Ex 3-2, cysteine, pH 5, 0 hour",89.51
same,Eluent B,"[1]; Ex 3-2, cysteine, pH 5, 0 hour",3.54
same,Purity,[1]; [17],87.89%
same,Eluent A,[1]; [17],93.51
same,Eluent B,[1]; [17],5.62
same,Purity,[1]; [18],90.39%
same,Eluent A,[1]; [18],93.61
same,Eluent B,[1]; [18],3.22
same,Purity,[1]; [19],93.47%
same,Eluent A,[1]; [19],95.55
same,Eluent B,[1]; [19],2.08
same,Purity,[1]; [20],82.97%
same,Eluent A,[1]; [20],91.17
same,Eluent B,[1]; [20],8.2
same,Purity,[1]; [21],86.06%
same,Eluent A,[1]; [21],89.61
same,Eluent B,[1]; [21],3.55
same,Purity,[1]; [22],87.56%
same,Eluent A,[1]; [22],91.99
same,Eluent B,[1]; [22],4.43
same,Purity,"[1]; Ex 3-2, cysteine, pH 7, 0 hour",96.94%
same,Eluent A,"[1]; Ex 3-2, cysteine, pH 7, 0 hour",100
same,Eluent B,"[1]; Ex 3-2, cysteine, pH 7, 0 hour",3.06
same,Purity,[1]; [23],93.36%
same,Eluent A,[1]; [23],98.3
same,Eluent B,[1]; [23],4.94
same,Purity,[1]; [24],96.35%
same,Eluent A,[1]; [24],98.27
same,Eluent B,[1]; [24],1.92
same,Purity,[1]; [25],97.69%
same,Eluent A,[1]; [25],100
same,Eluent B,[1]; [25],2.31
same,Purity,[1]; [26],97.12%
same,Eluent A,[1]; [26],100
same,Eluent B,[1]; [26],2.88
same,Purity,[1]; [27],94.14%
same,Eluent A,[1]; [27],100
same,Eluent B,[1]; [27],5.86
same,Purity,[1]; [28],95.76%
same,Eluent A,[1]; [28],100
same,Eluent B,[1]; [28],4.24
same,Purity,"[1]; addition of cysteine, pH of 7, even after 4 hours (text to Table 2)",≥ 90%
same,specific uptake in the disease model,[2],high specific uptake
same,target to non target ratio,"[2]; gamma counter, 2nd hour",2.0
same,"counts per minute (CPM)/g value, left artery",[2]; [29],1.3 CPM/g
same,"counts per minute (CPM)/g value, right artery",[2]; [29],2.5 CPM/g
same,background radioactivity excretion,[2]; microSPECT until 4 hours,quick background radioactivity excretion effect
